pIC50: −log10 of the molar value. Each block holds one molecule with its values, some of them ahead of it.
Experiments:
[1] = target: T1, Leukotriene A-4 hydrolase (Homo sapiens, UniProt P09960)
T1 sequence (P09960 whole entry): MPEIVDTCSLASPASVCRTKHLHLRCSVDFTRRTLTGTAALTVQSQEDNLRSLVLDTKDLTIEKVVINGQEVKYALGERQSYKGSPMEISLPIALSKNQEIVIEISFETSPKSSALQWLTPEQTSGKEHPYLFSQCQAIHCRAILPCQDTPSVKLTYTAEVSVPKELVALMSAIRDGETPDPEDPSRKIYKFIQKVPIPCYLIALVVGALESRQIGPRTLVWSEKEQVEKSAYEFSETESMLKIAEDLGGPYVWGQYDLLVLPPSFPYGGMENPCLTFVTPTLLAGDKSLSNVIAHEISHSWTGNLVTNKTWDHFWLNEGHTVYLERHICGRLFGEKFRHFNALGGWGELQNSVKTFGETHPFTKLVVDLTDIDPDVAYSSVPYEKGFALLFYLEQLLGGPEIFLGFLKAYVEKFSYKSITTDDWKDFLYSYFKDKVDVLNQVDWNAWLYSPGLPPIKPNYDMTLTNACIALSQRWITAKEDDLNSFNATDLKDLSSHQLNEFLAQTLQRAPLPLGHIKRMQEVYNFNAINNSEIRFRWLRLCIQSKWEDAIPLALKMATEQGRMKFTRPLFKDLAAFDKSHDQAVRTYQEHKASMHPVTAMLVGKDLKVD
Description: Inhibition of human recombinant LTA4H hydrolysis assessed as inhibition of LTB4 formation by LC-MS/MS

[2] = Volume of distribution in mouse at 10 mg/kg, iv; format: ADME, organism-based; design: dose 10 mg/kg, route intravenous; conditions: in vivo
[3] = AUC (0 to infinity) in mouse at 10 mg/kg, po; format: ADME, organism-based; design: time infinity, dose 10 mg/kg, route oral; conditions: plasma
[4] = Metabolic stability in rat liver microsomes assessed as compound remaining after 30 mins; format: ADME, Microsome; conditions: read-out: Stability
[5] = Clearance in mouse at 10 mg/kg, iv; format: ADME, organism-based; design: dose 10 mg/kg, route intravenous; conditions: in vivo
[6] = Cmax in mouse at 10 mg/kg, po; format: ADME, organism-based; design: dose 10 mg/kg, route oral; conditions: in vivo
[7] = Oral bioavailability in mouse at 10 mg/kg; format: ADME, organism-based; conditions: in vivo
[8] = target: T1, Leukotriene A-4 hydrolase; remark: listed apart in the source
Description: Inhibition of human LTA4H hydrolysis assessed as inhibition of Ca2+ ionophore-stimulated LTB4 formation in human whole blood by ELISA

[9] = Half life in mouse at 10 mg/kg, po; format: ADME, organism-based; design: dose 10 mg/kg, route oral; conditions: in vivo
[10] = system: Rattus norvegicus; assay: AUC (0 to infinity) in Sprague-Dawley rat at 10 mg/kg, iv; format: ADME, organism-based, Plasma; design: time infinity, dose 10 mg/kg, route intravenous; conditions: in vivo
[11] = Volume of distribution in Sprague-Dawley rat at 10 mg/kg, iv; format: ADME, organism-based; design: dose 10 mg/kg, route intravenous; conditions: in vivo
[12] = Half life in Sprague-Dawley rat at 10 mg/kg, po; format: ADME, organism-based; design: dose 10 mg/kg, route oral; conditions: in vivo
[13] = Cmax in Sprague-Dawley rat at 10 mg/kg, iv; format: ADME, organism-based; design: dose 10 mg/kg, route intravenous; conditions: in vivo
[14] = AUC (0 to infinity) in Sprague-Dawley rat at 10 mg/kg, po; format: ADME, organism-based; design: time infinity, dose 10 mg/kg, route oral; conditions: plasma
[15] = Clearance in monkey at 10 mg/kg, iv; format: ADME, organism-based, Macaca mulatta; design: dose 10 mg/kg, route intravenous; conditions: rhesus monkey, in vivo
[16] = Cmax in Sprague-Dawley rat at 10 mg/kg, po; format: ADME, organism-based; design: dose 10 mg/kg, route oral; conditions: in vivo
[17] = target: T2, CYP1A2 (Homo sapiens, UniProt P05177); assay: Inhibition of human CYP1A2 at 10 uM; format: ADME
T2 sequence (P05177 whole entry): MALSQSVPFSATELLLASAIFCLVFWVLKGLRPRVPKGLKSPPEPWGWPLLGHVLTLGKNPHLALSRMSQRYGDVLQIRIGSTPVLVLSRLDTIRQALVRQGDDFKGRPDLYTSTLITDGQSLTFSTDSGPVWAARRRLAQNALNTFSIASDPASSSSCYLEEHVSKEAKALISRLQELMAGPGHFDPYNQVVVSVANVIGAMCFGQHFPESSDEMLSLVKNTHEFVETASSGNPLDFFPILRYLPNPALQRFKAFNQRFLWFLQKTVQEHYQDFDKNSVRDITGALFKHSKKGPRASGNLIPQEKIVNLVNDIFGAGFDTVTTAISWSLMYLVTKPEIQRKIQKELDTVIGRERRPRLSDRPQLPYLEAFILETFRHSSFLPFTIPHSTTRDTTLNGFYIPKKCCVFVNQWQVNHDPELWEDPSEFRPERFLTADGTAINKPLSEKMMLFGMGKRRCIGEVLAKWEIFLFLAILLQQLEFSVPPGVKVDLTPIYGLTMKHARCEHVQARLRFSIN

[18] = target: Glutamyl aminopeptidase (Homo sapiens) (UniProt Q07075); assay: Inhibition of APA at 10 uM
[19] = target: Xaa-Pro aminopeptidase 1 (Homo sapiens) (UniProt Q9NQW7); assay: Inhibition of APP1 at 10 uM
[20] = target: Endoplasmic reticulum aminopeptidase 1 (Homo sapiens) (UniProt Q9NZ08); assay: Inhibition of PILS at 10 uM
[21] = Volume of distribution in monkey at 10 mg/kg, iv; format: ADME, organism-based, Macaca mulatta; design: dose 10 mg/kg, route intravenous; conditions: rhesus monkey, in vivo
[22] = target: Voltage-gated inwardly rectifying potassium channel KCNH2 (Homo sapiens, UniProt Q12809); assay: Inhibition of human ERG channel
[23] = Volume of distribution in dog at 10 mg/kg, iv; format: ADME, organism-based, Canis lupus familiaris; design: dose 10 mg/kg, route intravenous; conditions: in vivo
[24] = Cmax in monkey at 10 mg/kg, po; format: ADME, organism-based, Macaca mulatta; design: dose 10 mg/kg, route oral; conditions: rhesus monkey, in vivo
[25] = Cmax in dog at 10 mg/kg, po; format: ADME, organism-based, Canis lupus familiaris; design: dose 10 mg/kg, route oral; conditions: in vivo
[26] = Half life in dog at 10 mg/kg, po; format: ADME, organism-based, Canis lupus familiaris; design: dose 10 mg/kg, route oral; conditions: in vivo
[27] = Oral bioavailability in Sprague-Dawley rat at 10 mg/kg; format: ADME, organism-based; conditions: in vivo
[28] = Half life in monkey at 10 mg/kg, po; format: ADME, organism-based, Macaca mulatta; design: dose 10 mg/kg, route oral; conditions: rhesus monkey, in vivo
[29] = target: CYP2C9 (Homo sapiens, UniProt P11712); assay: Inhibition of human CYP2C9 at 10 uM; format: ADME
[30] = target: Cytochrome P450 2D6 (Homo sapiens, UniProt P10635); assay: Inhibition of CYP2D6; format: ADME
[31] = target: CYP2C19 (Homo sapiens, UniProt P33261); assay: Inhibition of human CYP2C19 at 10 uM; format: ADME
[32] = Clearance in Sprague-Dawley rat at 10 mg/kg, iv; format: ADME, organism-based; design: dose 10 mg/kg, route intravenous; conditions: in vivo
[33] = Aqueous solubility at pH 6.18; format: physicochemical; conditions: buffer
[34] = target: CYP3A4 (Homo sapiens, UniProt P08684); assay: Inhibition of human CYP3A4 at 10 uM; format: ADME
[35] = system: Rhesus monkey; assay: Oral bioavailability in monkey at 10 mg/kg; format: ADME, organism-based, Macaca mulatta; conditions: in vivo
[36] = target: Endoplasmic reticulum aminopeptidase 2 (Homo sapiens) (UniProt Q6P179); assay: Inhibition of LRAP at 10 uM
[37] = Clearance in dog at 10 mg/kg, iv; format: ADME, organism-based, Canis lupus familiaris; design: dose 10 mg/kg, route intravenous; conditions: in vivo
[38] = AUC (0 to infinity) in monkey at 10 mg/kg, po; format: ADME, organism-based, Macaca mulatta; design: time infinity, dose 10 mg/kg, route oral; conditions: rhesus monkey, plasma
[39] = target: Aminopeptidase N (Homo sapiens) (UniProt P15144); assay: Inhibition of APN at 10 uM
[40] = AUC (0 to infinity) in dog at 10 mg/kg, po; format: ADME, organism-based, Canis lupus familiaris; design: time infinity, dose 10 mg/kg, route oral; conditions: plasma

Voltage-gated inwardly rectifying potassium channel KCNH2, sequence (Q12809 whole entry): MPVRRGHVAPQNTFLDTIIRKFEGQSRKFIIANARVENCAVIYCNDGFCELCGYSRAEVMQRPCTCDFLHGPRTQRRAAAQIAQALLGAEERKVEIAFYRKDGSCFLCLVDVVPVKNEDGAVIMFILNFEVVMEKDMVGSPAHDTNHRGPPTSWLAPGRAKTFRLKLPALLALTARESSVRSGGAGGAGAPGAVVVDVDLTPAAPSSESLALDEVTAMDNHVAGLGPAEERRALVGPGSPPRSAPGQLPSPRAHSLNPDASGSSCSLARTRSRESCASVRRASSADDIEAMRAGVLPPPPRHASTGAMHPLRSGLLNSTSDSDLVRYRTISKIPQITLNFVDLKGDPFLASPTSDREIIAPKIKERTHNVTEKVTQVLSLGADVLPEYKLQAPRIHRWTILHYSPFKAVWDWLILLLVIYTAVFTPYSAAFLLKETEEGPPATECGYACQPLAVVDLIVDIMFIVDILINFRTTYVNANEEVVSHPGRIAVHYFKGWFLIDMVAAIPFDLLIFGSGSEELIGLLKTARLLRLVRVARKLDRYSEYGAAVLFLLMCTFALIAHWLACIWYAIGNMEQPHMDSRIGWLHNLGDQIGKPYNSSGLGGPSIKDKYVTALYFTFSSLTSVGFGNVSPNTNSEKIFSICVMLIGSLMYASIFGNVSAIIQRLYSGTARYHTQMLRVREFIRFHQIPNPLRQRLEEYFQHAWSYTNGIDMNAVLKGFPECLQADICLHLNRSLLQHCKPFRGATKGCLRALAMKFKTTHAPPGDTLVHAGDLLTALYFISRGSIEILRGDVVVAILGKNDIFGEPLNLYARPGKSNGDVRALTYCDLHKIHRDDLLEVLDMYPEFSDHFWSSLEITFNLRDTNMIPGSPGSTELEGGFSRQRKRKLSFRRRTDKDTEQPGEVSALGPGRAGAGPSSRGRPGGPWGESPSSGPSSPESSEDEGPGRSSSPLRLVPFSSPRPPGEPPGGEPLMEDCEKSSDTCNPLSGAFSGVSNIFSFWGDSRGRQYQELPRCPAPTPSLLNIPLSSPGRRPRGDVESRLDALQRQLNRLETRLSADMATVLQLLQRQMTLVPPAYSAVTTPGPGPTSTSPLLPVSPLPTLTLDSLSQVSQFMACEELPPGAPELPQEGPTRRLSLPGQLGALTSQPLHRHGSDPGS
Endoplasmic reticulum aminopeptidase 2 (Homo sapiens), sequence (Q6P179 whole entry): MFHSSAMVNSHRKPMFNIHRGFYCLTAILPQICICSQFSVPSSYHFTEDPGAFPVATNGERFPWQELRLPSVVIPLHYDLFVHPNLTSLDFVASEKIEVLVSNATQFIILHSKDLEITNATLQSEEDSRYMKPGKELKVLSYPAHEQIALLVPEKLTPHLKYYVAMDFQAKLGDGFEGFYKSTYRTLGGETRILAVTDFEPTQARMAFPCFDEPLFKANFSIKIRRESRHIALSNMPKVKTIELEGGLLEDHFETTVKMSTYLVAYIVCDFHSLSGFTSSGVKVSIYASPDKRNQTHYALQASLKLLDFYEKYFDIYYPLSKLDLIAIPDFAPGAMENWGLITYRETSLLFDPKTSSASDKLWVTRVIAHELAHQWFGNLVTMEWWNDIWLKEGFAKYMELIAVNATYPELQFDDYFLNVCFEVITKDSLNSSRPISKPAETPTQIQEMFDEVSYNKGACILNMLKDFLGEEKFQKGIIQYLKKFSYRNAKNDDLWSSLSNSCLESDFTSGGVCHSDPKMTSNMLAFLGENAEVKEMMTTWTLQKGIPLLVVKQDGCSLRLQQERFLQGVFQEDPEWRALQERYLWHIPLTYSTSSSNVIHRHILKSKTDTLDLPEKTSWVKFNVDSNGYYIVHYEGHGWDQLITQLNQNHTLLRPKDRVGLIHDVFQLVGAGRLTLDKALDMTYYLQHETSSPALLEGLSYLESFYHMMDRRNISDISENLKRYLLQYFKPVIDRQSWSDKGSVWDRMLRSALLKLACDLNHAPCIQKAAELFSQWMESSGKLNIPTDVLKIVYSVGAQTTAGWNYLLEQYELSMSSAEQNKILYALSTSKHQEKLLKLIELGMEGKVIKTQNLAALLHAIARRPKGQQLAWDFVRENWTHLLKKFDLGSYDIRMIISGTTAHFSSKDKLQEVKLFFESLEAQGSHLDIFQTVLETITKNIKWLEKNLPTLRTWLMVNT
CYP3A4, sequence (P08684 whole entry): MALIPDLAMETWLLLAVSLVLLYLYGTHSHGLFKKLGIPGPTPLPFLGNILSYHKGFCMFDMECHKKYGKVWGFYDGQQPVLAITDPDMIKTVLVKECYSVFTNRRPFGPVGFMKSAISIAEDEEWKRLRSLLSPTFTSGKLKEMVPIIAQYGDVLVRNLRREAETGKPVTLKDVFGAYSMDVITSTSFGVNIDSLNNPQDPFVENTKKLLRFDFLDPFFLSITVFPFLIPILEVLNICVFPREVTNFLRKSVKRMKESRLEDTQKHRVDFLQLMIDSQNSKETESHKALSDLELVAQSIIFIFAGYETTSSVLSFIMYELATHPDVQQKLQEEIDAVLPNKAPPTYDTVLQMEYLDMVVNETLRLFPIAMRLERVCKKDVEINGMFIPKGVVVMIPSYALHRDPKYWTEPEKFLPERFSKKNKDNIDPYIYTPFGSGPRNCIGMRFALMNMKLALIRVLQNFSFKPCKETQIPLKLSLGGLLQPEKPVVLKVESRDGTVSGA
Endoplasmic reticulum aminopeptidase 1 (Homo sapiens), sequence (Q9NZ08 whole entry): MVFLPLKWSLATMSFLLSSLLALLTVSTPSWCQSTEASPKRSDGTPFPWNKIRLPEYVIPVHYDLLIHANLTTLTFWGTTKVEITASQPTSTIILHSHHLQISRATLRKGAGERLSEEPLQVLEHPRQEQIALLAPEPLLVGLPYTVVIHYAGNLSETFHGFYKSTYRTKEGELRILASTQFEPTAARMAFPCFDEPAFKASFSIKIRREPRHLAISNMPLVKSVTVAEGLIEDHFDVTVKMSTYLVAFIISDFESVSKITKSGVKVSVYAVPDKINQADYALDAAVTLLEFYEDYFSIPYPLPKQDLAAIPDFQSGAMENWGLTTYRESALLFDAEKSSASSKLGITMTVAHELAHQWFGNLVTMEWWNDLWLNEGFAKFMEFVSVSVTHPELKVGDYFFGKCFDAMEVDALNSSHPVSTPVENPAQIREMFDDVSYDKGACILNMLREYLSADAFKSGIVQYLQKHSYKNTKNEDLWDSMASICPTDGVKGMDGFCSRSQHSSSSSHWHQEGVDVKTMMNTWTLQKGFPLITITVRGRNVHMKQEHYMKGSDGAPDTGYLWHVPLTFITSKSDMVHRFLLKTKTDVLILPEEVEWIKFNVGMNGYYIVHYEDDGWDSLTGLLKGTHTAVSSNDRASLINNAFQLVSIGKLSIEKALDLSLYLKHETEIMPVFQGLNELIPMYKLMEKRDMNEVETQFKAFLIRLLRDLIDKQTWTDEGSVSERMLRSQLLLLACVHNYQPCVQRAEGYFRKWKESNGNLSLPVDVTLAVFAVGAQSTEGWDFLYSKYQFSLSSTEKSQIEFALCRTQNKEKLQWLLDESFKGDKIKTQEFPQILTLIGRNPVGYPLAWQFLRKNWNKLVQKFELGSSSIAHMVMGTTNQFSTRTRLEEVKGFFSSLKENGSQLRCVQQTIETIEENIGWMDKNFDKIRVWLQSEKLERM
CYP2C19, sequence (P33261 whole entry): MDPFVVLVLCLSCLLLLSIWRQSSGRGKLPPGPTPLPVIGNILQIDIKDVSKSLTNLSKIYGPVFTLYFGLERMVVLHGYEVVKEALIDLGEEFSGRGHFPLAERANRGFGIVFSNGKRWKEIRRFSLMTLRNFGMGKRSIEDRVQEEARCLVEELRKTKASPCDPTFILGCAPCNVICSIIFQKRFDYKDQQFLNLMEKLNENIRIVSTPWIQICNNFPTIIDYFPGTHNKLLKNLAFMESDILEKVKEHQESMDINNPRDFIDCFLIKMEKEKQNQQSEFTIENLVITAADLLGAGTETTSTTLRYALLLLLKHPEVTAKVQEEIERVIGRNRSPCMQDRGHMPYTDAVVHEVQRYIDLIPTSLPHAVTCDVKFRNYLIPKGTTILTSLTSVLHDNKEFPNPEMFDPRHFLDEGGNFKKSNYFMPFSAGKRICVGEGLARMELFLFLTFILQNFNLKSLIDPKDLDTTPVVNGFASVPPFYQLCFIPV
CYP2C9, sequence (P11712 whole entry): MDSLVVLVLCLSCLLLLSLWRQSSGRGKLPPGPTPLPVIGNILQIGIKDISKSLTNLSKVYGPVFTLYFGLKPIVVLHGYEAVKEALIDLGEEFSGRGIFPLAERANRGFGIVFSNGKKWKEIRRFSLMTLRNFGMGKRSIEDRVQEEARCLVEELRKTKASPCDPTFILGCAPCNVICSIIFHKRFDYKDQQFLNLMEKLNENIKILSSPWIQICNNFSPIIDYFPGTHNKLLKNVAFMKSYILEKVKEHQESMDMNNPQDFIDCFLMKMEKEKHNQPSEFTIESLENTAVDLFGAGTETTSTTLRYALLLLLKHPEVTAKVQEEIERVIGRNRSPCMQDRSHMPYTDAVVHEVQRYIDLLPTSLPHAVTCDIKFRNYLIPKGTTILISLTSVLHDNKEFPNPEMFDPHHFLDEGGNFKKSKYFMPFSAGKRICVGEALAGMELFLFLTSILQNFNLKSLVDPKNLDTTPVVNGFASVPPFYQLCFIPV
Cytochrome P450 2D6, sequence (P10635 whole entry): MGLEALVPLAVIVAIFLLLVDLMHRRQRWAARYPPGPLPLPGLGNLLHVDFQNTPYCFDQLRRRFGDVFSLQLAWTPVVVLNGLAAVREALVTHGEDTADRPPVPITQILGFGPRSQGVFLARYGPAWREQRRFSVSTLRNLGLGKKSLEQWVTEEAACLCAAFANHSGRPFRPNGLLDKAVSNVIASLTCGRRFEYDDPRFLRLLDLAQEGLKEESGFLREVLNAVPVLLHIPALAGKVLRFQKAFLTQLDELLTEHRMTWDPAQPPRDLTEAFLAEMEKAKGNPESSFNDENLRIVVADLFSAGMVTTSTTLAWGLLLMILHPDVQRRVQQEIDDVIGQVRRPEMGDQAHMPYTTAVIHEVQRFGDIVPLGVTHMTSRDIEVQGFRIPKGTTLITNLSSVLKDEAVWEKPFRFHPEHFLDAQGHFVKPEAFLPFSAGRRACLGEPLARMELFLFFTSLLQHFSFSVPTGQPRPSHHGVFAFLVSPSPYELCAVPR

Structure (SMILES): Ic1ccc(Oc2ccc(N3CCNCC3)cc2)cc1
pIC50 [1]: 6.47

Vd [2]: 6.32 L/kg | AUC(0-inf) [3]: 2360 ng·h/mL | remaining at 0.5 h [4]: 86.6% | clearance [5]: 61 mL/min/kg | Cmax [6]: 1.02 µM | pIC50 [1]: 7.52 | bioavailability [7]: 85% | pIC50 [8]: 6.27 | half-life [9]: 3.59 h
Structure (SMILES): Clc1ccc(Oc2ccc(OC[C@H]3CCCN3)cc2)cc1

Structure (SMILES): c1ccc(Cc2ccc(OC[C@H]3CCCN3)cc2)cc1
AUC [10]: 471 ng·h/mL | remaining at 0.5 h [4]: 10.5% | Vd [11]: 6.12 L/kg | half-life [12]: 0.67 h | Cmax [13]: 1.46 µM

Structure (SMILES): c1ccc(Cc2ccc(OCCc3ccncc3)cc2)cc1
pIC50 [1]: 5.06

AUC(0-inf) [14]: 13000 ng·h/mL | clearance [15]: 6 mL/min/kg | Cmax [16]: 4.8 µM | inhibition at 10 µM [17]: < 50% | inhibition [18]: > 50% | remaining at 0.5 h [4]: 95.2% | inhibition [19]: > 50% | inhibition [20]: > 50% | Vd [21]: 2.07 L/kg | Vd [11]: 2.35 L/kg | Vd [23]: 1.56 L/kg | Cmax [24]: 18.9 µM | Cmax [25]: 19.3 µM | half-life [26]: 4.02 h | bioavailability [27]: 87% | half-life [28]: 5.54 h | half-life [12]: 2.57 h | inhibition at 10 µM [29]: < 50% | inhibition (INH) [30]: < 50% | inhibition at 10 µM [31]: < 50% | clearance [32]: 11 mL/min/kg | solubility [33]: > 30 mg/mL | inhibition at 10 µM [34]: < 50% | F [35]: 186% | inhibition [36]: > 50% | clearance [37]: 7.6 mL/min/kg | AUC(0-inf) [38]: 52400 ng·h/mL | inhibition [39]: > 50% | AUC(0-inf) [40]: 56000 ng·h/mL
Structure (SMILES): O=C(O)CCCN1CCC[C@H]1COc1ccc(Oc2ccc(Cl)cc2)cc1
inhibition (INH) [22]: > 50%

From ChEMBL document CHEMBL1156785, “Discovery of 4-[(2S)-2-{[4-(4-chlorophenoxy)phenoxy]methyl}-1-pyrrolidinyl]butanoic acid (DG-051) as a novel leukotriene A4 hydrolase inhibitor of leukotriene B4 biosynthesis” (J Med Chem, 2010)
